ChEMBL document CHEMBL4507300 (2021)

Legend:
[1] = biological target: Activin receptor type-1 (Homo sapiens) (UniProt Q04771); details: Compound concentration 1000.0 nM
[2] = biological target: RAC-beta serine/threonine-protein kinase (Homo sapiens) (UniProt P31751); details: Compound concentration 1000.0 nM
[3] = biological target: BMP-2-inducible protein kinase (Homo sapiens) (UniProt Q9NSY1); details: Compound concentration 1000.0 nM
[4] = biological target: Bone morphogenetic protein receptor type-1B (Homo sapiens) (UniProt O00238); details: Compound concentration 1000.0 nM
[5] = biological target: Calcium/calmodulin-dependent protein kinase type II subunit alpha (Homo sapiens) (UniProt Q9UQM7); details: Compound concentration 1000.0 nM
[6] = biological target: Cyclin-dependent kinase-like 1 (Homo sapiens) (UniProt Q00532); details: Compound concentration 1000.0 nM
[7] = biological target: Citron Rho-interacting kinase (Homo sapiens) (UniProt O14578); details: Compound concentration 1000.0 nM
[8] = biological target: Serine/threonine-protein kinase DCLK2 (Homo sapiens) (UniProt Q8N568); details: Compound concentration 1000.0 nM
[9] = biological target: Dual specificity tyrosine-phosphorylation-regulated kinase 1B (Homo sapiens) (UniProt Q9Y463); details: Compound concentration 1000.0 nM
[10] = tested on: Epidermal growth factor receptor (Homo sapiens), P00533 [L858R]; details: Compound concentration 1000.0 nM
[11] = biological target: Ephrin type-A receptor 5 (Homo sapiens) (UniProt P54756); details: Compound concentration 1000.0 nM
[12] = biological target: Focal adhesion kinase 1 (Homo sapiens) (UniProt Q05397); details: Compound concentration 1000.0 nM
[13] = biological target: Tyrosine-protein kinase Fer (Homo sapiens) (UniProt P16591); details: Compound concentration 1000.0 nM
[14] = tested on: Receptor-type tyrosine-protein kinase FLT3 (Homo sapiens), P36888 [K663Q]; details: Compound concentration 1000.0 nM
[15] = biological target: Tyrosine-protein kinase FRK (Homo sapiens) (UniProt P42685); details: Compound concentration 1000.0 nM
[16] = biological target: Mitogen-activated protein kinase 8 (Homo sapiens) (UniProt P45983); details: Compound concentration 1000.0 nM
[17] = biological target: Mitogen-activated protein kinase kinase kinase kinase 5 (Homo sapiens) (UniProt Q9Y4K4); details: Compound concentration 1000.0 nM
[18] = biological target: MAP kinase-activated protein kinase 5 (Homo sapiens) (UniProt Q8IW41); details: Compound concentration 1000.0 nM
[19] = biological target: Tyrosine-protein kinase Mer (Homo sapiens) (UniProt Q12866); details: Compound concentration 1000.0 nM
[20] = biological target: Hepatocyte growth factor receptor (Homo sapiens) (UniProt P08581); details: Compound concentration 1000.0 nM
[21] = biological target: Serine/threonine-protein kinase MRCK beta (Homo sapiens) (UniProt Q9Y5S2); details: Compound concentration 1000.0 nM
[22] = biological target: Macrophage-stimulating protein receptor (Homo sapiens) (UniProt Q04912); details: Compound concentration 1000.0 nM
[23] = biological target: Myosin-IIIb (Homo sapiens) (UniProt Q8WXR4); details: Compound concentration 1000.0 nM
[24] = biological target: Serine/threonine-protein kinase Nek7 (Homo sapiens) (UniProt Q8TDX7); details: Compound concentration 1000.0 nM
[25] = biological target: Serine/threonine-protein kinase PAK 1 (Homo sapiens) (UniProt Q13153); details: Compound concentration 1000.0 nM
[26] = biological target: Serine/threonine-protein kinase PAK 5 (Homo sapiens) (UniProt Q9P286); details: Compound concentration 1000.0 nM
[27] = biological target: Platelet-derived growth factor receptor alpha (Homo sapiens) (UniProt P16234); details: Compound concentration 1000.0 nM
[28] = biological target: Phosphatidylinositol 4-phosphate 3-kinase C2 domain-containing subunit beta (Homo sapiens) (UniProt O00750); details: Compound concentration 1000.0 nM
[29] = biological target: cAMP-dependent protein kinase catalytic subunit beta (Homo sapiens) (UniProt P22694); details: Compound concentration 1000.0 nM
[30] = biological target: Serine/threonine-protein kinase PLK4 (Homo sapiens) (UniProt O00444); details: Compound concentration 1000.0 nM
[31] = biological target: Protein kinase C iota type (Homo sapiens) (UniProt P41743); details: Compound concentration 1000.0 nM
[32] = biological target: Serine/threonine-protein kinase SIK3 (Homo sapiens) (UniProt Q9Y2K2); details: Compound concentration 1000.0 nM
[33] = biological target: Ribosomal protein S6 kinase beta-1 (Homo sapiens) (UniProt P23443); details: Compound concentration 1000.0 nM
[34] = biological target: Serine/threonine-protein kinase Sgk1 (Homo sapiens) (UniProt O00141); details: Compound concentration 1000.0 nM
[35] = biological target: Serine/threonine-protein kinase SIK2 (Homo sapiens) (UniProt Q9H0K1); details: Compound concentration 1000.0 nM
[36] = biological target: SRSF protein kinase 1 (Homo sapiens) (UniProt Q96SB4); details: Compound concentration 1000.0 nM
[37] = biological target: STE20/SPS1-related proline-alanine-rich protein kinase (Homo sapiens) (UniProt Q9UEW8); details: Compound concentration 1000.0 nM
[38] = biological target: Serine/threonine-protein kinase TNNI3K (Homo sapiens) (UniProt Q59H18); details: Compound concentration 1000.0 nM
[39] = biological target: Testis-specific serine/threonine-protein kinase 3 (Homo sapiens) (UniProt Q96PN8); details: Compound concentration 1000.0 nM
[40] = biological target: Tyrosine-protein kinase TXK (Homo sapiens) (UniProt P42681); details: Compound concentration 1000.0 nM
[41] = biological target: Vascular endothelial growth factor receptor 2 (Homo sapiens) (UniProt P35968); details: Compound concentration 1000.0 nM
[42] = biological target: Mitogen-activated protein kinase kinase kinase 20 (Homo sapiens) (UniProt Q9NYL2); details: Compound concentration 1000.0 nM
[43] = biological target: Mu-type opioid receptor (Homo sapiens) (UniProt P35372); details: Compound concentration 10.0 uM
[44] = biological target: Beta-2 adrenergic receptor (Homo sapiens) (UniProt P07550); details: Compound concentration 10.0 uM
[45] = biological target: Muscarinic acetylcholine receptor M1 (Homo sapiens) (UniProt P11229); details: Compound concentration 10.0 uM

Vascular endothelial growth factor receptor 2 (Homo sapiens), sequence (P35968 whole entry): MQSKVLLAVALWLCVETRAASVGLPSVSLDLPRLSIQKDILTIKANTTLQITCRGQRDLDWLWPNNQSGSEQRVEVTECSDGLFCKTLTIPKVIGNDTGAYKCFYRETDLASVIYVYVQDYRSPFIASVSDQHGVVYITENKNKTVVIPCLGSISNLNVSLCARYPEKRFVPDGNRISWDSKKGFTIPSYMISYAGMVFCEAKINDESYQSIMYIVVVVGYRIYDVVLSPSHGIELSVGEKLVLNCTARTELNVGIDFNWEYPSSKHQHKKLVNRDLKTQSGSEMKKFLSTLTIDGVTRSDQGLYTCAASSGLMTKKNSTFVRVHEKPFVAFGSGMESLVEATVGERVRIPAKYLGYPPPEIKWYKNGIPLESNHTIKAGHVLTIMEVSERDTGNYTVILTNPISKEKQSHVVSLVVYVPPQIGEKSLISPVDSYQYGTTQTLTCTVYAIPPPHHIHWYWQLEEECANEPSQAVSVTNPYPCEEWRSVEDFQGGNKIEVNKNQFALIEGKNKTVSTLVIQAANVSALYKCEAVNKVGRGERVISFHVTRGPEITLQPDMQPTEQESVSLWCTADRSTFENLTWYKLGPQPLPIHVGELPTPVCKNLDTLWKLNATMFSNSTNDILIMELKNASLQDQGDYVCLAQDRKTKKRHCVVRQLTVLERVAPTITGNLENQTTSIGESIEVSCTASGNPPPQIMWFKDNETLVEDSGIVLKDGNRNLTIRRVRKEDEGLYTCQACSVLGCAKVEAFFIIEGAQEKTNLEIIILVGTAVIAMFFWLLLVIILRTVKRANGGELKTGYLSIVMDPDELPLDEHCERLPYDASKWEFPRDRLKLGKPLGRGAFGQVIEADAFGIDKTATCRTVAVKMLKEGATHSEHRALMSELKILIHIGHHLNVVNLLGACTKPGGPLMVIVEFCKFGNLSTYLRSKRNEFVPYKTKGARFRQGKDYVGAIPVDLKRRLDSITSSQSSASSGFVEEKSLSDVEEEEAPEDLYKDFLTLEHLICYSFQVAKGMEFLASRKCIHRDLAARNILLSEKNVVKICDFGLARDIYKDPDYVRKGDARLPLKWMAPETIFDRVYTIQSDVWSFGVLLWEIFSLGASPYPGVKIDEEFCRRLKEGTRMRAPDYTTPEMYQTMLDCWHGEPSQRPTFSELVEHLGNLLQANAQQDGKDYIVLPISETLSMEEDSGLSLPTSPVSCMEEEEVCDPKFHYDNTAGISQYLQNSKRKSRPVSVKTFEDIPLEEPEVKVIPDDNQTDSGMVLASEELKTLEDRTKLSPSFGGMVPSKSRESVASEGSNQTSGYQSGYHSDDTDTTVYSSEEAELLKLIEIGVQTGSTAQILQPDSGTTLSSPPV
Activin receptor type-1 (Homo sapiens), sequence (Q04771 whole entry): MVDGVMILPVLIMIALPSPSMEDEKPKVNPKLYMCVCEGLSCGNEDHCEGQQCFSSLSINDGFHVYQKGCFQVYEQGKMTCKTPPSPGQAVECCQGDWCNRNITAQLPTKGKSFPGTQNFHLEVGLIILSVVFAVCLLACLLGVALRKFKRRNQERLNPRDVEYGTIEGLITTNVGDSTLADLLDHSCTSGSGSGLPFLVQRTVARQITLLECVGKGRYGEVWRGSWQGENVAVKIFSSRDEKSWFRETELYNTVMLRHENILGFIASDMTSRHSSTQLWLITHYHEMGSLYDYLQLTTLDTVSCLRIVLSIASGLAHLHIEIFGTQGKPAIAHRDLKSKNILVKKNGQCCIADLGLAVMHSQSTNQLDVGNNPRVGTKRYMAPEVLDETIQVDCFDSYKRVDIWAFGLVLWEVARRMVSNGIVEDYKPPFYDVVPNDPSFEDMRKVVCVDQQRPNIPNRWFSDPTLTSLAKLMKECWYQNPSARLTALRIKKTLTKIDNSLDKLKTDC
Protein kinase C iota type (Homo sapiens), sequence (P41743 whole entry): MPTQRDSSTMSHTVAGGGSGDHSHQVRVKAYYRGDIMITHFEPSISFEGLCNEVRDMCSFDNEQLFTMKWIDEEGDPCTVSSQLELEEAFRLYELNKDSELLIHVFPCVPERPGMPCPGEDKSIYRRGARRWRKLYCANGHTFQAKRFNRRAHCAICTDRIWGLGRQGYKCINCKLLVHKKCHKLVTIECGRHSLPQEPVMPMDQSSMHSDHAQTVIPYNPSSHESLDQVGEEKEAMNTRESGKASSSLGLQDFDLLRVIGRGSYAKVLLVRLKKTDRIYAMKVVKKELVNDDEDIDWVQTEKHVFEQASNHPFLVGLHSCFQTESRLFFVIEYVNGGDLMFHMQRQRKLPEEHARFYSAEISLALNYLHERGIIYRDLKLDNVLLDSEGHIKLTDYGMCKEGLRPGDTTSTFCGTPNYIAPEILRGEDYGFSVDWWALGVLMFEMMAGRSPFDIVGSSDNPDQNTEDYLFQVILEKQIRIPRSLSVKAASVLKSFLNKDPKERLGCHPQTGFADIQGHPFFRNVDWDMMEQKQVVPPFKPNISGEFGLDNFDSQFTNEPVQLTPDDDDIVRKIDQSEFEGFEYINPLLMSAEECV
Platelet-derived growth factor receptor alpha (Homo sapiens), sequence (P16234 whole entry, the tested form may be a part): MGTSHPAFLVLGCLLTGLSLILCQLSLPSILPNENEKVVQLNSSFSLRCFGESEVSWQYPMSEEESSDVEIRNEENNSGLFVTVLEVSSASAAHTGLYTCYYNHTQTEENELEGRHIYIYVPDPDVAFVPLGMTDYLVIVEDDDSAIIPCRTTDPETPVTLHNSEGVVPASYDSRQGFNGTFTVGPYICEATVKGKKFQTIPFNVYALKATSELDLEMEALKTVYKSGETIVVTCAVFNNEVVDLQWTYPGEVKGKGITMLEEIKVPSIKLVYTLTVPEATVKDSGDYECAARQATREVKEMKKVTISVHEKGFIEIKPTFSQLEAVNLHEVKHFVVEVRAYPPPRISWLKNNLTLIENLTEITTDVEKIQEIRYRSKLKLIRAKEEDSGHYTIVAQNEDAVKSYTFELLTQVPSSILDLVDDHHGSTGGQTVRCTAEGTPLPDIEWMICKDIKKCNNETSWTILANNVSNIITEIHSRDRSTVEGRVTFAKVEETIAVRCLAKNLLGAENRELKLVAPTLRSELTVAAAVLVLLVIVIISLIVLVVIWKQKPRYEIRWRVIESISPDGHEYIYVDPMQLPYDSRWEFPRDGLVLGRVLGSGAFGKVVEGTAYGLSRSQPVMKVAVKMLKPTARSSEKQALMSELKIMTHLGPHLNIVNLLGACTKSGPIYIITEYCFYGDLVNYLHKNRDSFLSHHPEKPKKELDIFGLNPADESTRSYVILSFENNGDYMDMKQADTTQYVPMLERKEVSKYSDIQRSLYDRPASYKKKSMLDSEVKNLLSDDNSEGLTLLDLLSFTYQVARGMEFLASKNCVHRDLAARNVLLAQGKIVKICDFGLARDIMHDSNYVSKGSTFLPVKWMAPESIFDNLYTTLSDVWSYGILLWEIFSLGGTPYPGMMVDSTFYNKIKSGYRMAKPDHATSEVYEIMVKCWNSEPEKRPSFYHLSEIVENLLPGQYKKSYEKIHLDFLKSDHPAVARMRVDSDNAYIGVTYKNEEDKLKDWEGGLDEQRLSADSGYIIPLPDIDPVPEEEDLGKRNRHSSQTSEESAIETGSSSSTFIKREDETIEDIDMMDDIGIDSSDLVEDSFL
Beta-2 adrenergic receptor (Homo sapiens), sequence (P07550 whole entry, looked up): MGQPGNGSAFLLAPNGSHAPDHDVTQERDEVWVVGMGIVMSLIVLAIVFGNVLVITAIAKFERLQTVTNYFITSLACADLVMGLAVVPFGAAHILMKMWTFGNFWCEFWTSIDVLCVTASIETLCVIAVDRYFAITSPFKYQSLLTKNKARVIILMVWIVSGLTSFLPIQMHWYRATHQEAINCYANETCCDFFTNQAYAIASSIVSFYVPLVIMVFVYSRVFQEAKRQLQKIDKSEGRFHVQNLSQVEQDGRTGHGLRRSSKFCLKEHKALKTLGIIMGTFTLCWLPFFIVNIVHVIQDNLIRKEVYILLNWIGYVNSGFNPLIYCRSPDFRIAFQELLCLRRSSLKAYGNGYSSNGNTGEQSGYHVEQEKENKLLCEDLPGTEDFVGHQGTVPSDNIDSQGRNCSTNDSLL
Mu-type opioid receptor (Homo sapiens), sequence (P35372 whole entry): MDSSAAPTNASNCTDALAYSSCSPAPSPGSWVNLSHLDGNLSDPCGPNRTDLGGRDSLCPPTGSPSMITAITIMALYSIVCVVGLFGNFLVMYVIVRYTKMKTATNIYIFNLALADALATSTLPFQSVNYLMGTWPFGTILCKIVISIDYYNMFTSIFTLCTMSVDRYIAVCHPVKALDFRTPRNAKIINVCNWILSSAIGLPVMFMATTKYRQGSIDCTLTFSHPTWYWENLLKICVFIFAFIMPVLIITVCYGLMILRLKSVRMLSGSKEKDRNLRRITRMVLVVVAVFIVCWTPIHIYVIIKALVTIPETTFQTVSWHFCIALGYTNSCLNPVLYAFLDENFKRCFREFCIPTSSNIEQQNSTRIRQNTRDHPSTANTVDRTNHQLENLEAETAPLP
Mitogen-activated protein kinase 8 (Homo sapiens), sequence (P45983 whole entry): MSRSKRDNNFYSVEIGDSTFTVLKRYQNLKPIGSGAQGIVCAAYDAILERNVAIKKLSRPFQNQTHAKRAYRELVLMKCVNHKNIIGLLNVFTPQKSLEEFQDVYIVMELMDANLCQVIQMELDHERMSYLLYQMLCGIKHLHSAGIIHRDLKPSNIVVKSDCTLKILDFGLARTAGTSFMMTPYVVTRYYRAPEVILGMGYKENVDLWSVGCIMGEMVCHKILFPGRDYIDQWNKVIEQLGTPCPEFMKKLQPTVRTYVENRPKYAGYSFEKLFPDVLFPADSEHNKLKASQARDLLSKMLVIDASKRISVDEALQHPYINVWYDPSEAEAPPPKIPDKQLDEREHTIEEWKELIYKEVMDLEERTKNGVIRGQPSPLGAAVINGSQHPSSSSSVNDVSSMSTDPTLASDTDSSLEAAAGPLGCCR

## COc1cccc(CNC(=O)c2nc3scc(COCc4ccc(C(=O)O)cc4)c3c(=O)[nH]2)c1 [T-26c]
[1]
  residual activity: 94.3%
[2]
  residual activity: 93.3%
[3]
  residual activity: 92.3%
[4]
  residual activity: 64.5%
[5]
  residual activity: 92.5%
[6]
  residual activity: 100%
[7]
  residual activity: 100%
[8]
  residual activity: 100%
[9]
  residual activity: 100%
[10]
  residual activity: 88.3%
[11]
  residual activity: 98.5%
[12]
  residual activity: 100%
[13]
  residual activity: 100%
[14]
  residual activity: 93%
[15]
  residual activity: 83.7%
[16]
  residual activity: 100%
[17]
  residual activity: 87.3%
[18]
  residual activity: 93.8%
[19]
  residual activity: 88.3%
[20]
  residual activity: 100%
[21]
  residual activity: 99.5%
[22]
  residual activity: 81.9%
[23]
  residual activity: 100%
[24]
  residual activity: 100%
[25]
  residual activity: 100%
[26]
  residual activity: 87.4%
[27]
  residual activity: 56.3%
[28]
  residual activity: 80.6%
[29]
  residual activity: 91.1%
[30]
  residual activity: 83%
[31]
  residual activity: 100%
[32]
  residual activity: 63.5%
[33]
  residual activity: 96.1%
[34]
  residual activity: 93.4%
[35]
  residual activity: 86.4%
[36]
  residual activity: 100%
[37]
  residual activity: 100%
[38]
  residual activity: 95.5%
[39]
  residual activity: 81.4%
[40]
  residual activity: 87.7%
[41]
  residual activity: 70%
[42]
  residual activity: 85.5%
[43]
  inhibition: -3.34%
[44]
  inhibition: 25.4%
[45]
  inhibition: 53.4%
